# Measured values taken from ChEMBL document CHEMBL3112450, “Synthesis and in vitro antitumor evaluation of primary amine substituted quinazoline linked benzimidazole” (Bioorg Med Chem Lett, 2014).
# Experiments:
# Type in all cases: functional
# NCI-H23 = assay: Cytotoxicity against human NCI-H23 cells assessed as cell growth at 10^-5 M after 48 hrs by SRB assay; conditions: NCI-H23, 48 h, read-out: Activity
# CAKI-1 = assay: Cytotoxicity against human Caki1 cells assessed as cell growth at 10^-5 M after 48 hrs by SRB assay; conditions: CAKI-1, 48 h, read-out: Activity
# [1] = Cytotoxicity against human Hs578T cells assessed as cell growth at 10^-5 M after 48 hrs by SRB assay; conditions: Hs-578T, read-out: Activity
# K562 [2] = assay: Cytotoxicity against human K562 cells assessed as cell growth at 10^-4 M after 48 hrs by SRB assay; conditions: K562, 48 h, read-out: Activity
# NCI-H322M [3] = assay: Cytotoxicity against human NCI-H322M cells assessed as cell growth at 10^-8 M after 48 hrs by SRB assay; conditions: read-out: Activity
# M14 = assay: Cytotoxicity against human M14 cells assessed as cell growth at 10^-5 M after 48 hrs by SRB assay; conditions: M14, 48 h, read-out: Activity
# PC-3 [4] = assay: Cytotoxicity against human PC3 cells assessed as cell growth at 10^-8 M after 48 hrs by SRB assay; conditions: PC-3, 48 h, read-out: Activity
# DU-145 = assay: Cytotoxicity against human DU145 cells assessed as cell growth at 10^-5 M after 48 hrs by SRB assay; conditions: DU-145, 48 h, read-out: Activity
# SF-295 = assay: Cytotoxicity against human SF295 cells assessed as cell growth at 10^-6 M after 48 hrs by SRB assay; conditions: SF-295, 48 h, read-out: Activity
# SN12C [5] = assay: Cytotoxicity against human SN12C cells assessed as cell growth at 10^-6 M after 48 hrs by SRB assay; conditions: read-out: Activity
# SF-268 [6] = assay: Cytotoxicity against human SF268 cells assessed as cell growth at 10^-8 M after 48 hrs by SRB assay; conditions: SF-268, 48 h, read-out: Activity
# SK-MEL-28 = assay: Cytotoxicity against human SK-MEL-28 cells assessed as cell growth at 10^-5 M after 48 hrs by SRB assay; conditions: SK-MEL-28, 48 h, read-out: Activity
# SN12C [7] = assay: Cytotoxicity against human SN12C cells assessed as cell growth at 10^-5 M after 48 hrs by SRB assay; conditions: read-out: Activity
# MDA-MB-468 [8] = assay: Cytotoxicity against human MDA-MB-468 cells assessed as cell growth at 10^-7 M after 48 hrs by SRB assay; conditions: MDA-MB-468, 48 h, read-out: Activity
# SK-MEL-5 = assay: Cytotoxicity against human SK-MEL-5 cells assessed as cell growth at 10^-5 M after 48 hrs by SRB assay; conditions: SK-MEL-5, 48 h, read-out: Activity
# RXF 393 = assay: Cytotoxicity against human RXF393 cells assessed as cell growth at 10^-5 M after 48 hrs by SRB assay; conditions: RXF 393, 48 h, read-out: Activity
# [9] = Cytotoxicity against human OVCAR4 cells assessed as cell growth at 10^-5 M after 48 hrs by SRB assay; conditions: OVCAR-4, 48 h, read-out: Activity
# NCI-H522 = assay: Cytotoxicity against human NCI-H522 cells assessed as cell growth at 10^-4 M after 48 hrs by SRB assay; conditions: NCI-H522, 48 h, read-out: Activity
# CCRF-CEM = assay: Cytotoxicity against human CCRF-CEM cells after 48 hrs by SRB assay
# NCI-H322M [10] = assay: Cytotoxicity against human NCI-H322M cells assessed as cell growth at 10^-5 M after 48 hrs by SRB assay; conditions: read-out: Activity
# PC-3 [11] = assay: Cytotoxicity against human PC3 cells assessed as cell growth at 10^-5 M after 48 hrs by SRB assay; conditions: PC-3, 48 h, read-out: Activity
# SR = assay: Cytotoxicity against human SR cells assessed as cell growth at 10^-5 M after 48 hrs by SRB assay; conditions: read-out: Activity
# KM12 = assay: Cytotoxicity against human KM12 cells assessed as cell growth at 10^-5 M after 48 hrs by SRB assay; conditions: KM12, 48 h, read-out: Activity
# MDA-MB-468 [12] = assay: Cytotoxicity against human MDA-MB-468 cells after 48 hrs by SRB assay; conditions: MDA-MB-468, 48 h
# HL-60(TB) = assay: Cytotoxicity against human HL-60(TB) cells assessed as cell growth at 10^-5 M after 48 hrs by SRB assay; conditions: HL-60, 48 h, read-out: Activity
# SF-539 = assay: Cytotoxicity against human SF539 cells assessed as cell growth at 10^-5 M after 48 hrs by SRB assay; conditions: SF-539, 48 h, read-out: Activity
# NCI-H322M [13] = assay: Cytotoxicity against human NCI-H322M cells after 48 hrs by SRB assay
# SF-268 [14] = assay: Cytotoxicity against human SF268 cells assessed as cell growth at 10^-4 M after 48 hrs by SRB assay; conditions: SF-268, 48 h, read-out: Activity
# K562 [15] = assay: Cytotoxicity against human K562 cells assessed as cell growth at 10^-8 M after 48 hrs by SRB assay; conditions: K562, 48 h, read-out: Activity
# [16] = Cytotoxicity against human Hs578T cells after 48 hrs by SRB assay; conditions: Hs-578T
# IGROV-1 = assay: Cytotoxicity against human IGROV1 cells assessed as cell growth at 10^-5 M after 48 hrs by SRB assay; conditions: IGROV-1, 48 h, read-out: Activity
# HT-29 = assay: Cytotoxicity against human HT-29 cells assessed as cell growth at 10^-5 M after 48 hrs by SRB assay; conditions: HT-29, 48 h, read-out: Activity
# SW-620 = assay: Cytotoxicity against human SW620 cells assessed as cell growth at 10^-7 M after 48 hrs by SRB assay; conditions: SW-620, 48 h, read-out: Activity
# K562 [17] = assay: Cytotoxicity against human K562 cells assessed as cell growth at 10^-6 M after 48 hrs by SRB assay; conditions: K562, 48 h, read-out: Activity
# U-251 = assay: Cytotoxicity against human U251 cells assessed as cell growth at 10^-5 M after 48 hrs by SRB assay; conditions: U-251, 48 h, read-out: Activity
# [18] = Cytotoxicity against human UACC257 cells assessed as cell growth at 10^-5 M after 48 hrs by SRB assay; conditions: UACC-257, 48 h, read-out: Activity
# HCT-15 = assay: Cytotoxicity against human HCT15 cells assessed as cell growth at 10^-5 M after 48 hrs by SRB assay; conditions: HCT-15, 48 h, read-out: Activity
# NCI-H226 = assay: Cytotoxicity against human NCI-H226 cells assessed as cell growth at 10^-6 M after 48 hrs by SRB assay; conditions: NCI-H226, 48 h, read-out: Activity
# OVCAR-3 = assay: Cytotoxicity against human OVCAR3 cells assessed as cell growth at 10^-5 M after 48 hrs by SRB assay; conditions: OVCAR-3, 48 h, read-out: Activity
structure (smiles),measurement,setting,value
C=CCn1c(C)nc2ccc(Nc3nc(Nc4ccc5nc(C)n(CC=C)c5c4)c4ccccc4n3)cc21,growth at 10 µM,NCI-H23,-89%
same,growth at 10 µM,CAKI-1,-81%
same,growth at 10 µM,[1],-52%
same,growth at 100 µM,K562 [2],1%
same,growth at 0.01 µM,NCI-H322M [3],89%
same,growth at 10 µM,M14,-95%
same,growth at 0.01 µM,PC-3 [4],93%
same,growth at 10 µM,DU-145,-98%
same,growth at 1 µM,SF-295,97%
same,growth at 1 µM,SN12C [5],90%
same,growth at 0.01 µM,SF-268 [6],90%
same,growth at 10 µM,SK-MEL-28,-96%
same,growth at 10 µM,SN12C [7],-100%
same,growth at 0.1 µM,MDA-MB-468 [8],92%
same,growth at 10 µM,SK-MEL-5,-98%
same,growth at 10 µM,RXF 393,-93%
same,growth at 10 µM,[9],-100%
same,growth at 100 µM,NCI-H522,-15%
same,GI50,CCRF-CEM,2090 nM
same,LC50,CCRF-CEM,> 100000 nM
same,growth at 10 µM,NCI-H322M [10],-88%
same,growth at 10 µM,PC-3 [11],-82%
same,growth at 10 µM,SR,-57.2%
same,growth at 10 µM,KM12,-94%
same,GI50,MDA-MB-468 [12],1220 nM
same,TGI,MDA-MB-468 [12],2480 nM
same,growth at 10 µM,HL-60(TB),-71%
same,growth at 10 µM,SF-539,-96%
same,GI50,NCI-H322M [13],1710 nM
same,LC50,NCI-H322M [13],6150 nM
same,TGI,NCI-H322M [13],3240 nM
same,growth at 100 µM,SF-268 [14],-33%
same,growth at 0.01 µM,K562 [15],96%
same,GI50,[16],1710 nM
same,TGI,[16],4080 nM
same,growth at 10 µM,IGROV-1,-87%
same,growth at 10 µM,HT-29,-96.7%
same,growth at 0.1 µM,SW-620,94%
same,growth at 1 µM,K562 [17],68%
same,growth at 10 µM,U-251,-100%
same,growth at 10 µM,[18],-91%
same,growth at 10 µM,HCT-15,-74%
same,growth at 1 µM,NCI-H226,94%
same,growth at 10 µM,OVCAR-3,-99%
